Read-outs that look alike come from different tables or passages of the source.
Tests used:
P388/0 tumor cells = test: Lymphocytic Leukemia P388/0 Test; assay type: in vivo, CD2-F1 mice; conditions: for Optimal Dose: intraperitoneally on days 1, 5, and 9 relative to tumor implant; for T/C x 100% (Excluding 30 Day survivors): median survival time treated/control at optimal dose, i.p. days 1, 5, and 9, criterion for activity >120%
Text: Methods for evaluating the antitumour activity of these compounds are essentially those used in the Tumor Panel by the Developmental Therapeutics Program, Division of Cancer Treatment, National Cancer institute, A. Goldin, et al., Methods in Cancer Research, Vol. XVI, p. 165, Academic Press (1979). Some modifications, in dose level and schedule have been made to increase the testing efficiency.
(§1) CD2-F1 mice, of the same sex, weighing 20t3g are used for this test. Control and test animals are injected intraperitoneally with a suspension of -10^6 viable P388/0 tumor cells on day 0. In each test several dose levels which bracket the LD20 for the compound are evaluated; each dose level group contains 6 animals. The test compounds are prepared either in physiologic saline containing 0.05% Tween 80 or distilled water containing 5% dextrose and are administered intraperitoneally on days 1, 5, and 9 relative to tumor implant. Doses are on a mg/kg basis according to individual animals' body weights. The day of death for each animal is recorded, the median identified for each group and the ratios of median survival time for treated (T)/control (C) groups are calculated. The criterion for activity is T/C x 100 >120%.

[1] = LD20 determined in the P388/0 test; assay type: in vivo
Protocol: as §1

Saccharomyces cerevisiae = test: In vitro antifungal activity, minimum fungistatic concentration; assay type: cell-based; conditions: read-out: Minimum Fungistatic Concentration
Protocol: The minimum fungistatic concentrations of compounds of the formula (I) against various fungi were obtained using standard techniques. The tests were carried out in either medium A or medium B (see below) and the standard used in each instance was Miconazole nitrate.

[2] = intraperitoneally on days 1, 5, and 9, tumor-bearing mice

Structure (SMILES): CC(CO)(CO)NCc1c2ccccc2cc2c1ccc1ccccc12 [Example 1, 2-((7-Benz[a]anthracenylmethyl)amino)-2-methyl-1,3-propanediol methanesulfonate]
- Optimal Dose (P388/0 tumor cells): 220 mg/kg
- T/C x 100% (Excluding 30 Day survivors) (P388/0 tumor cells): +270%
- LD20 [1, 2]: 180 mg/kg

Structure (SMILES): CC(CO)(CO)NCc1c2ccccc2c2ccc3cccc4ccc1c2c43 [Example 2, 2-[(Benzo[a]pyren-6-ylmethyl)amino]-2-methyl-1,3-propanediol methanesulfonate]
- Optimal Dose (P388/0 tumor cells): 111 mg/kg
- T/C x 100% (Excluding 30 Day survivors) (P388/0 tumor cells): +204%
- LD20 [1, 2]: 100 mg/kg

Structure (SMILES): CC(CO)(CO)NCc1c2ccccc2cc2cc3ccccc3cc12 [Example 3C, 2-[(5-naphthacenylmethyl)amino]-2-methyl-1,3-propanediol methanesulfonate]
- Optimal Dose (P388/0 tumor cells): 60 mg/kg
- T/C x 100% (Excluding 30 Day survivors) (P388/0 tumor cells): +195%
- LD20 ([1]; mouse, in vivo, ip): 50 mg/kg

Structure (SMILES): CC(CO)(CO)NCc1c2c(cc3ccccc13)Cc1ccccc1-2 [Example 4B, 2-[(11H-Benzo[b]fluoren-5-ylmethyl)amino]-2-methyl-1,3-propanediol methanesulfonate]
- Optimal Dose (P388/0 tumor cells): 225 mg/kg
- T/C x 100% (Excluding 30 Day survivors) (P388/0 tumor cells): +280%
- LD20 ([1]; mouse, in vivo, ip): 300 mg/kg

Structure (SMILES): CC(CO)(CO)NCc1cc2ccc3ccccc3c2c2ccccc12 [Example 5B, 2[(Benzo[c]phenanthren-5-ylmethyl)amino]-2-methyl-1,3-propanediol methanesulfonate]
- Optimal Dose (P388/0 tumor cells): 15 mg/kg
- T/C x 100% (Excluding 30 Day survivors) (P388/0 tumor cells): +140%
- MIC (Saccharomyces cerevisiae): ≤ 0.4 mg/L
- LD20 [1, 2]: 10 mg/kg

Structure (SMILES): CC(CO)(CO)NCc1c2ccccc2c(Cl)c2cc3ccccc3cc12 [Example 6B, 2-[(12-Chloro-5-naphthacenylmethyl)amino]-2-methyl-1,3-propanediol methanesulfonate]
- Optimal Dose (P388/0 tumor cells): 75 mg/kg
- T/C x 100% (Excluding 30 Day survivors) (P388/0 tumor cells): +150%
- LD20 ([1]; mouse, in vivo, ip): 70 mg/kg

Structure (SMILES): CC(CO)(CO)NCc1c2ccccc2c(Cl)c2cc3ccccc3cc12.Cl [Example 6C, 2-[(12-chloro-5-naphthacenylmethyl)amino]-2-methyl-1,3-propanediol hydrochloride]
- Optimal Dose (P388/0 tumor cells): 40 mg/kg
- T/C x 100% (Excluding 30 Day survivors) (P388/0 tumor cells): +150%
- LD20 [1, 2]: 70 mg/kg

Structure (SMILES): Clc1ccc(COC(Cn2ccnc2)c2ccc(Cl)cc2Cl)c(Cl)c1 (centres unmarked) [Miconazole Nitrate, Miconazole nitrate, reference compound]
- MIC (Saccharomyces cerevisiae; medium A or medium B): ≤ 0.4 mg/L

Source: patent EP0182609A2, “Polycyclic biocidal compounds, their synthesis, formulations containing them” (THE WELLCOME FOUNDATION LIMITED, priority 1984, dated 1986)
